Data on eleven compounds can be found in publication PMC5553068 (Bioorganic & medicinal chemistry, 2017).

A word on the IC50: it is the midpoint of a concentration-inhibition curve. As a reminder, the clearance is the rate of elimination divided by the concentration. A high value points to efficient removal. For orientation: bioavailability means the share of a dose that reaches the circulation, judged against a reference dose that is usually intravenous.

For one series, the target named is T1, human renin (Homo sapiens, UniProt P00797).
T1 sequence (P00797 67-406): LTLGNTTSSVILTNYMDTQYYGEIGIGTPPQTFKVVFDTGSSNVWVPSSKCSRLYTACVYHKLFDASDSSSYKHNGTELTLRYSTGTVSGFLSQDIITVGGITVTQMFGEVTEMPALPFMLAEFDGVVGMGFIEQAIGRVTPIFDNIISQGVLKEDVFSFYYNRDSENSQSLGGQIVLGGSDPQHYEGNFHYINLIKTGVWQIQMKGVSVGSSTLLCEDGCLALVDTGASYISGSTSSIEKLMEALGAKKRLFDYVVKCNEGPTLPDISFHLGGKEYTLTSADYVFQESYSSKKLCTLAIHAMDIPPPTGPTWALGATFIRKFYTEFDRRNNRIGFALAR
The settings on record: for Ligand Efficiency: Table 3.

The conditions of series [1]: Table 7, literature comparators, no reference given; cited from earlier work.
Another series concerns renin. The settings on record: ligand of the 2IKO X-ray structure; cited from earlier work.
The nature of series [2]: Rat in vivo pharmacokinetic studies. More on the design: species or system Sprague Dawley rats. The settings on record: for AUC: 10 mg/kg po dose, HCl salts, vehicle D5W, mean n = 3; for clearance / bioavailability: Sprague-Dawley, plasma; for clearance: iv, 1 mg/kg; for bioavailability: po, 10 mg/kg.

For the compound `CCc1nc(N)nc(N)c1-c1ccc2c(c1)N(CCCOC)CCC2` [Compound 6c, reference compound], the “Ligand Efficiency” value at human renin is 0.34.
Turning to `CCc1nc(N)nc(N)c1-c1ccc2c(c1)N(CCCOC)C(=O)C(C)(c1cc(F)cc(F)c1)O2` (centres unmarked) [Compound 7c], in series [1], the “%F (rat)” value is 0.4%.
As to `CCc1nc(N)nc(N)c1-c1ccc(NCc2cc(F)cc(F)c2)cc1` [Compound 8], the IC50 in the series on renin was 4 µM.
For `COCCCN1CCCc2ccc(-c3c(C)cc(N)nc3C)cc21` [Compound 12, 5-(1-(3-Methoxypropyl)-1,2,3,4-tetrahydroquinolin-7-yl)-4,6-dimethylpyridin-2-amine], the “Ligand Efficiency” value on human renin worked out at 0.27.
The same measure, in the same setting: the same measure for `CCc1nc(N)cc(C)c1-c1ccc2c(c1)N(CCCOC)CCC2` [Compound 13, 6-Ethyl-5-(1-(3-methoxypropyl)-1,2,3,4-tetrahydroquinolin-7-yl)-4-methylpyridin-2-amine]: 0.34; for `CCc1nc(N)cc(OC)c1-c1ccc2c(c1)N(CCCOC)CCC2` [Compound 15, 6-Ethyl-4-methoxy-5-(1-(3-methoxypropyl)-1,2,3,4-tetrahydroquinolin-7-yl)pyridin-2-amine]: 0.33.
As for `CCc1nc(N)cc(C)c1-c1cccc2c(C)c[nH]c12` [Compound 20, 6-Ethyl-4-methyl-5-(3-methyl-1H-indol-7-yl)pyridin-2-amine], on human renin (going from 17 to 19 and then to 20), the “fold improvement in activity” value was 36 fold.
Take `CCc1nc(N)cc(C)c1-c1ccc(F)c2c(C)c(CCOC)[nH]c12` [Compound 27, 6-Ethyl-5-(4-fluoro-2-(2-methoxyethyl)-3-methyl-1H-indol-7-yl)-4-methylpyridin-2-amine]: in series [2], the AUC came to 473 ngh/mL, the clearance is 68 mL/min/kg and the bioavailability came out at 20%.
The corresponding values for `CCc1nc(N)cc(C)c1-c1ccc2c(c1)N(CCNC(C)=O)C(=O)C(C)(C)O2` [Compound 32, N-(2-(6-(6-Amino-2-ethyl-4-methylpyridin-3-yl)-2,2-dimethyl-3-oxo-2H-benzo[b][1,4]oxazin-4(3H)-yl)ethyl)acetamide] are 1810 ngh/mL, 66 mL/min/kg and 58%.
The corresponding values for `CCc1nc(N)cc(OC)c1-c1ccc2c(c1)N(CCNC(C)=O)C(=O)C(C)(C)O2` [Compound 33, N-(2-(6-(6-Amino-2-ethyl-4-methoxypyridin-3-yl)-2,2-dimethyl-3-oxo-2H-benzo[b][1,4]oxazin-4(3H)-yl)ethyl)acetamide] are 1493 ngh/mL, 56 mL/min/kg and 39%.
Regarding `CCc1nc(N)cc(C)c1-c1ccc2c(c1)N(CCCOC)C(=O)C(C)(C)O2` [Compound 34, 6-(6-Amino-2-ethyl-4-methylpyridin-3-yl)-4-(3-methoxypropyl)-2,2-dimethyl-2H-benzo[b][1,4]oxazin-3(4H)-one], the “fold improvement in affinity vs 7b” value at human renin (6-ethyl-2-aminopyridine head group vs pyrimidine 7b, Table 5) is reported as 2- to 3 fold.
